Columns and labels:
[1] = system: DRG neurons of type-2 diabetes peripheral neuropathy model mice; assay: Axon growth of DRG neuron cells taken after administration, type-2 mice; format: in vivo, BKS db/db mice
Description: (§1) Type-2 diabetes mice: male 18-week-old BKS db/db mice were purchased from Jiangsu Gempharmatech Biotechnology Co., Ltd. One week after adaptive feeding, the mice were divided into a control group (db/m mice), a model group (db/db mice) and a S26 administration group (46.8 mg/kg/day) respectively according to body weight and blood sugar, and administrated intragastrically for four weeks continuously. After administration, a fresh DRG neuron of a mouse was extracted to digest into a single-cell suspension and then inoculated into a culture plate for adherent culture overnight. A β-tubulin III (Sigma) protein of the DRG neuron cells was labeled by an immunofluorescence staining method. The protein was imaged by a fluorescence microscope (Leica), and a total axon length of a single DRG neuron cell was tracked by a Neuro J plug-in in Image J software.

[2] = system: STZ-induced type-1 diabetes model mice; assay: Motor nerve conduction velocity, type-1 diabetic peripheral neuropathy mice; format: in vivo, C57BL/6J mice; settings: for Motor nerve conduction velocity: type-1 mice, S26 46.8 mg/kg/day intragastric, Mean ± SD, n = 3
Description: Type-1 diabetes mice: male 8-week-old C57BL/6J mice were purchased from Beijing Vital River Laboratory Animal Technology Co., Ltd. One week after adaptive feeding, STZ (150 mg/kg) was injected intraperitoneally, and one week later, tail vein blood collection was carried out for blood sugar detection, and the mice with random blood sugar greater than 16 mmol/L were selected. Six weeks after STZ injection, the mice were divided into a control group (non-diabetic mice), a model group (DPN mice) and a S26 administration group (46.8 mg/kg/day) respectively according to body weight and blood sugar, and administrated intragastrically for four weeks continuously. Before administration, 2 weeks and 4 weeks after administration, motor nerve conduction velocities (MNCV) of left and right sides of each group of mice were detected, and a mean value of the velocities of two sides was taken as a nerve conduction velocity of each mouse. Specific experimental method: (1) electrode placement: a stimulating electrode was placed on a nerve trunk, a recording electrode was placed on a muscle belly, and a reference electrode was placed on a muscle tendon; and a ground electrode was placed between the stimulating electrode and the recording electrode. (2) Calculation of motor nerve conduction velocity: distal and proximal ends of the nerve trunk were stimulated in a super-strong manner, a compound muscle action potential could be recorded twice on a muscle innervated by the nerve, different latent periods of the compound muscle action potentials were measured, and a distance between the distal and proximal ends was divided by a difference between the two latent periods, so as to obtain the nerve conduction velocity. Computational formula: nerve conduction velocity (m/s)=distance between two ends (cm)×10/difference between two latent periods (ms).

[3] = system: DRG neurons of type-1 diabetes peripheral neuropathy model mice; assay: Axon growth of DRG neuron cells taken after administration, type-1 mice; format: in vivo, C57BL/6J mice
Description: as §1, with “Type-1” for “Type-2”, “8-week-old C57BL/6J” for “18-week-old BKS db/db”, “Beijing Vital River Laboratory Animal Technology” for “Jiangsu Gempharmatech Biotechnology”, “feeding, STZ (150 mg/kg) was injected intraperitoneally, and one week later, tail vein blood collection was carried out for blood sugar detection, and the mice with random blood sugar greater than 16 mmol/L were selected. Six weeks after STZ injection,” for “feeding,”, “(non-diabetic” for “(db/m”, “(DPN” for “(db/db”

[4] = system: diabetic foot ulcer rat model (STZ-induced diabetic rat); assay: Foot ulcer wound area of diabetic foot ulcer model rat; format: in vivo, Sprague Dawley rats; settings: for Area of foot ulcer wound: DFU rats, S26 46.8 mg/kg/day intragastric, Mean ± SD, n = 6
Description: Diabetic foot ulcer (DFU) was the most common manifestation of diabetic foot, and was also a main cause of amputation of a diabetic patient. In this experiment, a certain area of wound was created on a foot back of the diabetic rat at one time to form a diabetic foot ulcer model, and then the compound S26 was administrated for treatment. The influence of the vinpocetine derivative S26 on the healing of the diabetic foot ulcer was evaluated by taking a photo of the wound and quantifying an area of the wound. […] Four weeks after STZ injection, an inhalation anesthesia machine was used to carry out isoflurane inhalation to induce anesthesia, and a complete round skin wound was created on a rear foot back of the diabetic rat through a disposable 5 mm skin biopsy punch and a Westcott scissor. After the establishment of the diabetic foot ulcer rat model, the rats were divided into a control group (non-diabetic rats), a model group (DFU rats) and a S26 administration group (46.8 mg/kg/day) respectively according to blood sugar and body weight, and administrated intragastrically for four weeks continuously. The foot ulcer wound of each rat was observed on day 0, day 3, day 7, day 14, day 21 and day 28 after administration, and photographed with a camera, and then the wound area was quantified by Image J software through scale conversion.

Compound: CC[C@@]12C=C(C(=O)NCC(=O)OCCOCCOCCOCCO)n3c4c(c5ccccc53)CCN(CCC1)[C@H]42 [Compound S26]
- Total axon length ([1]; Type-2 db/db mice, DRG neurons extracted after four weeks of S26 46.8 mg/kg/day intragastric, Mean (SD in the cell below), n = 6): 6070.18 pixel
- Axon growth conditions of DRG neurons (in words, FIG. 1) ([1]; type-2 diabetes peripheral neuropathy model mice): obviously improve
- Motor nerve conduction velocity and anesthesia symptom (in words) ([2]; type-1 diabetes peripheral neuropathy mouse, Tables 2 to 4): obviously improve
- Motor nerve conduction velocity ([2]; week 0 of administration): 20.37 ± 3.21^ m/s
- Motor nerve conduction velocity ([2]; week 2 of administration): 27.48 ± 2.97 m/s
- Motor nerve conduction velocity ([2]; week 4 of administration): 31.11 ± 3.85 m/s
- Total axon length ([3]; Type-1 mice, DRG neurons extracted after four weeks of S26 46.8 mg/kg/day intragastric, Mean (SD in the cell below), n = 6): 6374.12 pixel
- Axon growth conditions of DRG neurons (in words, FIG. 1) ([3]; type-1 diabetes peripheral neuropathy model mice): obviously improve
- Area of foot ulcer wound ([4]; day 0 of administration): 25.02 ± 2.85 mm^2
- Area of foot ulcer wound ([4]; day 3 of administration): 22.57 ± 2.76 mm^2
- Area of foot ulcer wound ([4]; day 7 of administration): 11.83 ± 3.73^# mm^2
- Area of foot ulcer wound ([4]; day 14 of administration): 10.50 ± 2.01^## mm^2
- Area of foot ulcer wound ([4]; day 21 of administration): 8.78 ± 1.35^## mm^2
- Area of foot ulcer wound ([4]; day 28 of administration): 6.02 ± 1.67^# mm^2
- Area of the foot ulcer wound (in words, FIG. 2) ([4]; diabetic foot rat): obviously reduce
